Assay results taken from US20210255193A1, “LYSINE REACTIVE PROBES AND USES THEREOF” (The Scripps Research Institute, priority 2017, published 2021).
Blank lines part the entries; values can stand above or below the compound they belong to.

Experiments:
Test in all cases: competitive isoTOP-ABPP
Assay type in all cases: binding
[1] = biological target: T1, GBAS Protein NipSnap homolog 2 (Homo sapiens, UniProt O75323); settings: for isoTOP-ABPP ratio (R) at liganded lysine O75323_K75 / R value (DMSO/fragment) for probe 1 labeling / isoTOP-ABPP reactivity ratio at lysine O75323_K75: 50 uM, in vitro; for isoTOP-ABPP ratio (R) at liganded lysine O75323_K75: sol, 231; for R value (DMSO/fragment) for probe 1 labeling: O75323_K75; for R value (DMSO/fragment) for probe 1 labeling / isoTOP-ABPP reactivity ratio at lysine O75323_K75: 231 sol; for isoTOP-ABPP ratio, lysine O75323_K75: 50 uM_231_sol_in vitro
T1 construct: isoTOP-ABPP experiments performed in cell lysates (in vitro); endogenous in cells; host or cells: MDA-MB-231 soluble lysate
T1 sequence (O75323 24-286): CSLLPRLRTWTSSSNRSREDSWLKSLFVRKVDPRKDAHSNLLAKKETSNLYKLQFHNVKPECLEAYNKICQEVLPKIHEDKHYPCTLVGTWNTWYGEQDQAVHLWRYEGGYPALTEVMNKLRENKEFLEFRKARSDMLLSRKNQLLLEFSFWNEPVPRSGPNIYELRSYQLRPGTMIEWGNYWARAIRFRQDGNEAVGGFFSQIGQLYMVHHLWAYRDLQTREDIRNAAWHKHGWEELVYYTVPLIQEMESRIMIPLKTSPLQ
Method in brief: (§1)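 Lysate + fragment (50 μM activated ester / 100 μM guanidinylating agent) or DMSO → 0.1 mM STP-alkyne, 1 h, RT → CuAAC to TEV tags (compound light, DMSO heavy) → LC-MS. R = heavy/light MS1 area; liganded lysine if R≥4.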

[2] = biological target: T2, CNOT4 CCR4-NOT transcription complex subunit 4 (Homo sapiens, UniProt O95628); settings: for isoTOP-ABPP ratio (R) at liganded lysine O95628_K134 / R value (DMSO/fragment) for probe 1 labeling / isoTOP-ABPP reactivity ratio at lysine O95628_K134: 50 uM, in vitro; for isoTOP-ABPP ratio (R) at liganded lysine O95628_K134: sol, 231; for R value (DMSO/fragment) for probe 1 labeling: O95628_K134; for R value (DMSO/fragment) for probe 1 labeling / isoTOP-ABPP reactivity ratio at lysine O95628_K134: 231 sol; for isoTOP-ABPP ratio, lysine O95628_K134: 50 uM_231_sol_in vitro
T2 construct: isoTOP-ABPP experiments performed in cell lysates (in vitro); endogenous in cells; host or cells: MDA-MB-231 soluble lysate
T2 sequence (O95628 1-575): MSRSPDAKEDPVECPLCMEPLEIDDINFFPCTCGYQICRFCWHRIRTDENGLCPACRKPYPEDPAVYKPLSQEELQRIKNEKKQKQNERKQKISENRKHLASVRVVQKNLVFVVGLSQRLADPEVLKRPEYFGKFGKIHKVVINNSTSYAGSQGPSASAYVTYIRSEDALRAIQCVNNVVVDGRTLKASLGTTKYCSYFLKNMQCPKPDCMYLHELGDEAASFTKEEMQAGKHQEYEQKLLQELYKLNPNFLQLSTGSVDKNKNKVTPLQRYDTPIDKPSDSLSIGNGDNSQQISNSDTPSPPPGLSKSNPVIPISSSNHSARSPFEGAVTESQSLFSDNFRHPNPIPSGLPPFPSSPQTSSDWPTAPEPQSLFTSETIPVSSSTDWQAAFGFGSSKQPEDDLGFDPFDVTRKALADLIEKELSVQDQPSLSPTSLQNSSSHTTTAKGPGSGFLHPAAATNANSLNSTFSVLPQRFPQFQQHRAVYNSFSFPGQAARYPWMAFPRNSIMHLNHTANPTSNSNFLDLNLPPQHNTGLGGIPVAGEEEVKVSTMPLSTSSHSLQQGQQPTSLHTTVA
Method in brief: as §1

[3] = biological target: T3, GTPBP3 tRNA modification GTPase GTPBP3, mitochondrial (Homo sapiens, UniProt Q969Y2); settings: for R value (DMSO/fragment) for probe 1 labeling: Q969Y2_K492, 231 sol; for R value (DMSO/fragment) for probe 1 labeling / isoTOP-ABPP ratio (R) at liganded lysine Q969Y2_K492: 50 uM, in vitro; for isoTOP-ABPP ratio (R) at liganded lysine Q969Y2_K492: sol, 231; for isoTOP-ABPP ratio, lysine Q969Y2_K492: 50 uM_231_sol_in vitro
T3 construct: isoTOP-ABPP experiments performed in cell lysates (in vitro); endogenous in cells; host or cells: soluble proteome of human cancer cell lines (MDA-MB-231; Ramos and Jurkat also prepared)
T3 sequence (Q969Y2 21-492): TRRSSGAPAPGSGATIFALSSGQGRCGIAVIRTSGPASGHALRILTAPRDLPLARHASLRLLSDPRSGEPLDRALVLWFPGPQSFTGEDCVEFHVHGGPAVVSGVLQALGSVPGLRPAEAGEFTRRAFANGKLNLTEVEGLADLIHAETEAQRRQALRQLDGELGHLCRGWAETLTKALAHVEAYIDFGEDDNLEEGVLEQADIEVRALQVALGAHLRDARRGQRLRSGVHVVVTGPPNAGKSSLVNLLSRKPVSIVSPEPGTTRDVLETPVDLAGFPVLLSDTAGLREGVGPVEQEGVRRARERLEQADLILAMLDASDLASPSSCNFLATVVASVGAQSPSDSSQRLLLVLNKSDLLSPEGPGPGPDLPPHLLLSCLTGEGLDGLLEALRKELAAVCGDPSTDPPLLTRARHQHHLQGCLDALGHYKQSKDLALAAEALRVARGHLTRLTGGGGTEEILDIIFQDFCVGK
Method in brief: as §1

Compound: CC(C)(C)OC(=O)NCCCC(=O)Oc1ccc([N+](=O)[O-])cc1[N+](=O)[O-] [fragment 41, 2,4-Dinitrophenyl 4-((tert-butoxycarbonyl)amino)butanoate]
isoTOP-ABPP ratio (R) at liganded lysine O75323_K75 [1]: 1.8
isoTOP-ABPP ratio (R) at liganded lysine O95628_K134 [2]: 1.3

R value (DMSO/fragment) for probe 1 labeling [1]: 1.5
R value (DMSO/fragment) for probe 1 labeling [3]: 1.1
R value (DMSO/fragment) for probe 1 labeling [2]: 1.4
Compound: Cn1cc(CC(=O)Oc2c(F)c(F)c(F)c(F)c2F)c2ccccc21 [fragment 22, Pentafluorophenyl 2-(1-methyl-1H-indol-3-yl)acetate]

Compound: O=C(Oc1ccc([N+](=O)[O-])cc1[N+](=O)[O-])c1ccc(-c2ccccc2)cc1 [fragment 37, 2,4-Dinitrophenyl [1,1′-biphenyl]-4-carboxylate]
isoTOP-ABPP ratio (R) at liganded lysine O75323_K75 [1]: 1.6
isoTOP-ABPP ratio (R) at liganded lysine Q969Y2_K492 [3]: 1.2
isoTOP-ABPP ratio (R) at liganded lysine O95628_K134 [2]: 1.0

Compound: COc1cc(CCC(=O)Oc2ccc([N+](=O)[O-])cc2[N+](=O)[O-])cc(OC)c1OC [fragment 33, 2,4-Dinitrophenyl 3-(3,4,5-trimethoxyphenyl)propanoate]
isoTOP-ABPP reactivity ratio at lysine O75323_K75 [1]: 3.0
isoTOP-ABPP reactivity ratio at lysine O95628_K134 [2]: 1.4

R value (DMSO/fragment) for probe 1 labeling [1]: 0.9
R value (DMSO/fragment) for probe 1 labeling [3]: 1.1
R value (DMSO/fragment) for probe 1 labeling [2]: 0.9
Compound: O=C(Oc1c(F)c(F)c(F)c(F)c1F)C(c1ccccc1)c1ccccc1 [fragment 20, Pentafluorophenyl 2,2-diphenylacetate]

Compound: O=C(Oc1ccc([N+](=O)[O-])cc1[N+](=O)[O-])c1ccc2ccccc2n1 [fragment 35, 2,4-Dinitrophenyl quinoline-2-carboxylate]
isoTOP-ABPP ratio (R) at liganded lysine O75323_K75 [1]: 1.6
isoTOP-ABPP ratio (R) at liganded lysine O95628_K134 [2]: 1.3

Compound: O=C(CCc1ccc2c(c1)OCO2)Oc1ccc([N+](=O)[O-])cc1[N+](=O)[O-] [fragment 45, 2,4-Dinitrophenyl 3-(benzo[d][1,3]dioxol-5-yl)propanoate]
isoTOP-ABPP ratio, lysine O75323_K75 [1]: 5.0
isoTOP-ABPP ratio, lysine Q969Y2_K492 [3]: 1.4
isoTOP-ABPP ratio, lysine O95628_K134 [2]: 2.8

R value (DMSO/fragment) for probe 1 labeling [1]: 1.1
R value (DMSO/fragment) for probe 1 labeling [2]: 1.2
Compound: COc1cc(CCC(=O)Oc2c(F)c(F)c(F)c(F)c2F)cc(OC)c1OC [fragment 23, Pentafluorophenyl 3-(3,4,5-trimethoxyphenyl)propanoate]

Compound: O=C(Oc1ccc([N+](=O)[O-])cc1[N+](=O)[O-])c1ccccc1Nc1cccc(C(F)(F)F)c1 [fragment 40, 2,4-Dinitrophenyl 2-((3-(trifluoromethyl)phenyl)amino)benzoate]
isoTOP-ABPP ratio (R) at liganded lysine O75323_K75 [1]: 1.0
isoTOP-ABPP ratio (R) at liganded lysine Q969Y2_K492 [3]: 0.6
isoTOP-ABPP ratio (R) at liganded lysine O95628_K134 [2]: 1.1

Compound: O=C(ON1C(=O)CCC1=O)c1cc(C(F)(F)F)cc(C(F)(F)F)c1 [fragment 46, 3,5-Bis(trifluoromethyl)benzoic acid NHS ester]
isoTOP-ABPP ratio, lysine O75323_K75 [1]: 0.9
isoTOP-ABPP ratio, lysine Q969Y2_K492 [3]: 1.9
isoTOP-ABPP ratio, lysine O95628_K134 [2]: 5.2

Compound: O=C(Oc1ccc([N+](=O)[O-])cc1[N+](=O)[O-])c1ccc(Oc2ccccc2)cc1 [fragment 39, 2,4-Dinitrophenyl 4-phenoxybenzoate]
isoTOP-ABPP ratio (R) at liganded lysine O75323_K75 [1]: 20.0
isoTOP-ABPP ratio (R) at liganded lysine Q969Y2_K492 [3]: 1.2
isoTOP-ABPP ratio (R) at liganded lysine O95628_K134 [2]: 1.0

isoTOP-ABPP reactivity ratio at lysine O75323_K75 [1]: 1.4
isoTOP-ABPP reactivity ratio at lysine O95628_K134 [2]: 1.8
Compound: O=C(Oc1c(F)c(F)c(F)c(F)c1F)c1ccc2ccccc2n1 [fragment 25, Pentafluorophenyl quinoline-2-carboxylate]
